Columns and labels:
[1] = tested on: fetal globin; assay: Fetal globin production in erythroid progenitor colonies (Bfu-e), sickle cell anemia patient; format: cell-based, human; settings: controls 48% of non-α globin
[2] = tested on: system A transport of amino acids; assay: Uptake of 3H-methyl-aminoisobutyric acid (MeAIB) into erythroblasts; format: cell-based; settings: for amino acid (MeAIB) uptake / transport: 2.0 mM, relative to untreated fetal liver erythroid cells
Experimental: Erythroblasts were tested for alterations in uptake of radio-labelled amino acid (^3H-methyl-aminoisobutyric acid; MeAIB) in the presence of AB (arginine butyrate), AMHCA (α-methylhydrocinnamic acid), PAA (phenoxyacetic acid), and IBT (isobutyramide), each at 2.0 mM.

[3] = tested on: fetal globin; assay: Proportion of fetal globin-expressing cells in culture, fluorescent antibodies, sickle cell patient; format: cell-based, human; settings: 14 days, controls 40.7%
Experimental: In a fourth experiment, erythroid cells were obtained from a sickle cell patient. These cells were established in culture both with and without test a variety of test compounds. Cultures were incubated for 14 days in methylcellulose media with maximal concentrations of all hematopoietic growth factors (GM-CSF, SCF, EPO). Colonies were analyzed using fluorescent monoclonal antibodies against fetal globin to determine the proportion of erythroid cells that expressed fetal globin.

[4] = tested on: K562 human erythroleukemia cells; settings: cited from earlier work
[5] = tested on: γ-globin expression; assay: γ-globin mRNA by RNase protection in erythroid cell cultures of normal individuals; format: cell-based, human; settings: for x increase: over ChFCS
Experimental: Fetal globin production was determined in erythroid progenitor cells cultured in the presence or absence of test compositions. Erythroid cells were purified from blood obtained from a normal individual . […] Erythroid cell cultures were established with the following conditions: IMDM methylcellulose media, erythropoietin (3 U/ml), the human subjects' mononuclear cells, 30% charcoal-absorbed fetal calf serum, and the test compounds at varying micromolar concentrations.
Compounds were tested for their ability to induce expression of fetal globin expression in erythroid cell cultures established from the peripheral blood of normal individuals. Colonies were harvested and assayed for globin mRNA following 14 days of culture. Each compound was tested in duplicate cultures from 2-4 individual human subjects. Globin expression was quantitated by RNase protection assay for % gamma globin as a fraction of total non-alpha globin (% gamma/gamma+beta globin mRNA).

[6] = tested on: Bfu-e; assay: Erythroid colony (Bfu-e) proliferation with maximal growth factors, normal subject; format: cell-based, human; settings: 0.2-0.5 mM where given
Description: Erythroid cells were obtained, as described in Example 1, from a normal subject and cultured on semi-solid medium in the presence of a maximal amount of erythroid growth factors including IL-6, GM-CSF, SCF and EPO. Erythroid proliferation in the presence of these factors is expected to be maximal and, therefore, any increases observed would be significant.

CC(=Cc1ccccc1)C(=O)O [α-methylcinnamic acid]
increase in fetal globin over controls [1]: 12%

CCC(C)(C)C(=O)O [2,2-dimethylbutyric acid]
amino acid (MeAIB) uptake / transport [2]: moderate inhibition of transport
inhibition of MeAIB uptake ([2]; after 60 and 120 minutes): somewhat less so
Increase in γ-Globin Expressing Cells ([3]; concentration not given): 70.1%
increase in fetal globin over controls [1]: 24%

CCCCCCCC(=O)O [caprylate]
ability to increase fetal globin expression [4]: much less of an effect

CCCCCCCCCC(=O)O [caprate]
ability to increase fetal globin expression [4]: much less of an effect

CCC(=O)NO [propionyl hydroxamate]
x increase ([5]; 1 μM, 990709): 1.1 x
γ/γ + β ([5]; 1 μM, 990709, subject 99-4): 1.39%
γ/γ + β ([5]; 1 μM, 990709, subject 99-5): 2.39%
γ/γ + β mean ([5]; 1 μM, 990709, subjects 99-4, 99-5): 1.89%
x increase ([5]; 8 μM, 990709): 0.9 x
γ/γ + β ([5]; 8 μM, 990709, subject 99-4): 1.19%
γ/γ + β ([5]; 8 μM, 990709, subject 99-5): 1.73%
γ/γ + β mean ([5]; 8 μM, 990709, subjects 99-4, 99-5): 1.46%
x increase ([5]; 10 μM, 990709): 1.5 x
γ/γ + β ([5]; 10 μM, 990709, subject 99-4): 1.86%
γ/γ + β ([5]; 10 μM, 990709, subject 99-5): 3.28%
γ/γ + β mean ([5]; 10 μM, 990709, subjects 99-4, 99-5): 2.57%
x increase ([5]; 25 μM, 991208): 1.5 x
γ/γ + β ([5]; 25 μM, 991208, subject 00-1): 12.17%
γ/γ + β ([5]; 25 μM, 991208, subject 00-3): 12.38%
γ/γ + β mean ([5]; 25 μM, 991208, subjects 00-1, 00-3): 12.27%
x increase ([5]; 50 μM, 0601-0): 2.5 x
γ/γ + β ([5]; 50 μM, 0601-0, subject 00-3): 9.57%
γ/γ + β mean ([5]; 50 μM, 0601-0, subject 00-3 only): 9.57%
x increase ([5]; 50 μM, 990709): 3.0 x
γ/γ + β ([5]; 50 μM, 990709, subject 99-4): 3.80%
γ/γ + β ([5]; 50 μM, 990709, subject 99-5): 6.40%
γ/γ + β mean ([5]; 50 μM, 990709, subjects 99-4, 99-5): 5.10%
x increase ([5]; 50 μM, 991208): 2.5 x
γ/γ + β ([5]; 50 μM, 991208, subject 00-1): 20.79%
γ/γ + β ([5]; 50 μM, 991208, subject 00-3): 21.30%
γ/γ + β mean ([5]; 50 μM, 991208, subjects 00-1, 00-3): 21.05%
x increase ([5]; 100 μM, 0601-0): 4.8 x
γ/γ + β ([5]; 100 μM, 0601-0, subject 00-3): 16.66%
γ/γ + β mean ([5]; 100 μM, 0601-0, subject 00-3 only): 16.66%
x increase ([5]; 100 μM, 990709): 4.6 x
γ/γ + β ([5]; 100 μM, 990709, subject 99-4): 7.78%
γ/γ + β ([5]; 100 μM, 990709, subject 99-5): 8.80%
γ/γ + β mean ([5]; 100 μM, 990709, subjects 99-4, 99-5): 7.72%
x increase ([5]; 100 μM, 991208): 4.3 x
γ/γ + β ([5]; 100 μM, 991208, subject 00-1): 32.74%
γ/γ + β ([5]; 100 μM, 991208, subject 00-3): 38.33%
γ/γ + β mean ([5]; 100 μM, 991208, subjects 00-1, 00-3): 35.54%
x increase ([5]; 125 μM, 991208): 4.7 x
γ/γ + β ([5]; 125 μM, 991208, subject 00-1): 37.83%
γ/γ + β ([5]; 125 μM, 991208, subject 00-3): 39.14%
γ/γ + β mean ([5]; 125 μM, 991208, subjects 00-1, 00-3): 38.49%
x increase ([5]; 150 μM, 0601-0): 6.3 x
γ/γ + β ([5]; 150 μM, 0601-0, subject 00-3): 24.40%
γ/γ + β mean ([5]; 150 μM, 0601-0, subject 00-3 only): 24.40%
x increase ([5]; 150 μM, 991208): 6.7 x
γ/γ + β ([5]; 150 μM, 991208, subject 00-1): 59.60%
γ/γ + β ([5]; 150 μM, 991208, subject 00-3): 51.56%
γ/γ + β mean ([5]; 150 μM, 991208, subjects 00-1, 00-3): 55.58%
fetal (gamma) globin expression, fold over control cultures ([5]; 5 to 150 micromolar): 1.5-6.7 fold

diethyl butyric acid
amino acid (MeAIB) uptake / transport [2]: did not inhibit amino acid transport

CCCCCC(=O)[O-].CCCCCC(=O)[O-].[Ca+2] [caproate]
ability to increase fetal globin expression [4]: much less of an effect

CC(Oc1ccc(Cl)cc1)C(=O)O (centres unmarked) [4-chlorophenoxy-2-propionic acid]
Increase in γ-Globin Expressing Cells ([3]; 0.5 mM): 59.7%
Bfu-e growth [6]: further increase Bfu-e growth

COCC(=O)O [methoxyacetic acid]
increase in fetal globin over controls [1]: 3%

CCOC(=O)/C=C/C(=O)O [fumaric acid monoethyl ester]
amino acid (MeAIB) uptake / transport [2]: did not inhibit amino acid transport
Increase in γ-Globin Expressing Cells ([3]; concentration not given): 59.1%

O=C(O)CSc1ccccc1 [thiophenoxyacetic acid]
increase in fetal globin over controls [1]: 38%
